Test results as given in ChEMBL document CHEMBL5325403, “Benzenesulfonyl thiazoloimines as unique multitargeting antibacterial agents towards Enterococcus faecalis” (Eur J Med Chem, 2023).
Values after ≈ are worked out from the molar mass of the structure shown.

Tests used:
Type in all cases: functional
Staphylococcus aureus [1] = experiment: Antibacterial activity against Staphylococcus aureus assessed as inhibition of bacterial growth by continuous dilution method
Staphylococcus aureus [2] = experiment: Antibacterial activity against Staphylococcus aureus ATCC 25923 assessed as inhibition of bacterial growth by continuous dilution method
Escherichia coli [3] = experiment: Antibacterial activity against Escherichia coli assessed as inhibition of bacterial growth by continuous dilution method
Pseudomonas aeruginosa [4] = experiment: Antibacterial activity against Pseudomonas aeruginosa assessed as inhibition of bacterial growth by continuous dilution method
Pseudomonas aeruginosa [5] = experiment: Antibacterial activity against Pseudomonas aeruginosa ATCC 27853 assessed as inhibition of bacterial growth by continuous dilution method
Staphylococcus aureus [6] = experiment: Antibacterial activity against methicillin-resistant Staphylococcus aureus N315 assessed as inhibition of bacterial growth by continuous dilution method
Staphylococcus aureus [7] = experiment: Antibacterial activity against Staphylococcus aureus ATCC 29213 assessed as inhibition of bacterial growth by continuous dilution method
Escherichia coli [8] = experiment: Antibacterial activity against Escherichia coli ATCC 25922 assessed as inhibition of bacterial growth by continuous dilution method
Klebsiella pneumoniae = experiment: Antibacterial activity against Klebsiella pneumoniae assessed as inhibition of bacterial growth by continuous dilution method
Enterococcus faecalis = experiment: Antibacterial activity against Enterococcus faecalis assessed as inhibition of bacterial growth by continuous dilution method
Acinetobacter baumannii = experiment: Antibacterial activity against Acinetobacter baumannii assessed as inhibition of bacterial growth by continuous dilution method

Structure (SMILES)	MIC (Staphylococcus aureus [1])	MIC (Staphylococcus aureus [2])	MIC (Escherichia coli [3])	MIC (Pseudomonas aeruginosa [4])	MIC (Pseudomonas aeruginosa [5])	MIC (Staphylococcus aureus [6])	MIC (Staphylococcus aureus [7])	MIC (Escherichia coli [8])	MIC (Klebsiella pneumoniae)	MIC (Enterococcus faecalis)	MIC (Acinetobacter baumannii)
CC(=O)Nc1ccc(S(=O)(=O)/C(=C\c2ccc(F)cc2F)C(=O)c2nccs2)cc1	128 µg/mL (≈ 285 µM)	256 µg/mL (≈ 571 µM)	128 µg/mL (≈ 285 µM)	128 µg/mL (≈ 285 µM)	64 µg/mL (≈ 143 µM)	64 µg/mL (≈ 143 µM)	256 µg/mL (≈ 571 µM)	128 µg/mL (≈ 285 µM)	128 µg/mL (≈ 285 µM)	128 µg/mL (≈ 285 µM)	128 µg/mL (≈ 285 µM)
C=CCO/N=C(/CS(=O)(=O)c1ccc(N)cc1)c1nccs1	64 µg/mL (≈ 190 µM)	32 µg/mL (≈ 94.8 µM)	32 µg/mL (≈ 94.8 µM)	64 µg/mL (≈ 190 µM)	16 µg/mL (≈ 47.4 µM)	128 µg/mL (≈ 379 µM)	32 µg/mL (≈ 94.8 µM)	16 µg/mL (≈ 47.4 µM)	32 µg/mL (≈ 94.8 µM)	16 µg/mL (≈ 47.4 µM)	64 µg/mL (≈ 190 µM)
C=CCO/N=C(/CS(=O)(=O)c1ccc(NC(C)=O)cc1)c1nccs1	128 µg/mL (≈ 337 µM)	32 µg/mL (≈ 84.3 µM)	64 µg/mL (≈ 169 µM)	128 µg/mL (≈ 337 µM)	64 µg/mL (≈ 169 µM)	64 µg/mL (≈ 169 µM)	64 µg/mL (≈ 169 µM)	16 µg/mL (≈ 42.2 µM)	64 µg/mL (≈ 169 µM)	32 µg/mL (≈ 84.3 µM)	128 µg/mL (≈ 337 µM)
CC(=O)Nc1ccc(S(=O)(=O)/C(=C\c2ccc(F)cc2)C(=O)c2nccs2)cc1	128 µg/mL (≈ 297 µM)	256 µg/mL (≈ 595 µM)	128 µg/mL (≈ 297 µM)	256 µg/mL (≈ 595 µM)	64 µg/mL (≈ 149 µM)	128 µg/mL (≈ 297 µM)	128 µg/mL (≈ 297 µM)	64 µg/mL (≈ 149 µM)	128 µg/mL (≈ 297 µM)	128 µg/mL (≈ 297 µM)	64 µg/mL (≈ 149 µM)
CC(=O)Nc1ccc(S(=O)(=O)C/C(=N/NC(=O)Cc2ccccc2)c2nccs2)cc1	256 µg/mL (≈ 561 µM)	64 µg/mL (≈ 140 µM)	256 µg/mL (≈ 561 µM)	256 µg/mL (≈ 561 µM)	16 µg/mL (≈ 35 µM)	64 µg/mL (≈ 140 µM)	256 µg/mL (≈ 561 µM)	32 µg/mL (≈ 70.1 µM)	128 µg/mL (≈ 280 µM)	64 µg/mL (≈ 140 µM)	256 µg/mL (≈ 561 µM)
CCCCCCO/N=C(/CS(=O)(=O)c1ccc(N)cc1)c1nccs1	32 µg/mL (≈ 83.9 µM)	64 µg/mL (≈ 168 µM)	16 µg/mL (≈ 41.9 µM)	16 µg/mL (≈ 41.9 µM)	16 µg/mL (≈ 41.9 µM)	128 µg/mL (≈ 335 µM)	64 µg/mL (≈ 168 µM)	16 µg/mL (≈ 41.9 µM)	32 µg/mL (≈ 83.9 µM)	8 µg/mL (≈ 21 µM)	64 µg/mL (≈ 168 µM)
CC(=O)Nc1ccc(S(=O)(=O)C/C(=N/Nc2ccc(Cl)cc2)c2nccs2)cc1	128 µg/mL (≈ 285 µM)	256 µg/mL (≈ 570 µM)	128 µg/mL (≈ 285 µM)	256 µg/mL (≈ 570 µM)	128 µg/mL (≈ 285 µM)	256 µg/mL (≈ 570 µM)	128 µg/mL (≈ 285 µM)	128 µg/mL (≈ 285 µM)	256 µg/mL (≈ 570 µM)	64 µg/mL (≈ 143 µM)	256 µg/mL (≈ 570 µM)
N#CCO/N=C(/CS(=O)(=O)c1ccc(N)cc1)c1nccs1	128 µg/mL (≈ 381 µM)	64 µg/mL (≈ 190 µM)	16 µg/mL (≈ 47.6 µM)	64 µg/mL (≈ 190 µM)	32 µg/mL (≈ 95.1 µM)	64 µg/mL (≈ 190 µM)	64 µg/mL (≈ 190 µM)	8 µg/mL (≈ 23.8 µM)	64 µg/mL (≈ 190 µM)	64 µg/mL (≈ 190 µM)	128 µg/mL (≈ 381 µM)
C#CCO/N=C(/CS(=O)(=O)c1ccc(N)cc1)c1nccs1	64 µg/mL (≈ 191 µM)	32 µg/mL (≈ 95.4 µM)	32 µg/mL (≈ 95.4 µM)	64 µg/mL (≈ 191 µM)	32 µg/mL (≈ 95.4 µM)	64 µg/mL (≈ 191 µM)	64 µg/mL (≈ 191 µM)	32 µg/mL (≈ 95.4 µM)	32 µg/mL (≈ 95.4 µM)	64 µg/mL (≈ 191 µM)	64 µg/mL (≈ 191 µM)
CC(=O)Nc1ccc(S(=O)(=O)C/C(=N/O)c2nccs2)cc1	128 µg/mL (≈ 377 µM)	128 µg/mL (≈ 377 µM)	64 µg/mL (≈ 189 µM)	128 µg/mL (≈ 377 µM)	64 µg/mL (≈ 189 µM)	64 µg/mL (≈ 189 µM)	64 µg/mL (≈ 189 µM)	64 µg/mL (≈ 189 µM)	64 µg/mL (≈ 189 µM)	64 µg/mL (≈ 189 µM)	256 µg/mL (≈ 754 µM)
CC(=O)Nc1ccc(S(=O)(=O)/C(=C\c2nccs2)C(=O)c2nccs2)cc1	32 µg/mL (≈ 76.3 µM)	4 µg/mL (≈ 9.53 µM)	16 µg/mL (≈ 38.1 µM)	128 µg/mL (≈ 305 µM)	128 µg/mL (≈ 305 µM)	8 µg/mL (≈ 19.1 µM)	64 µg/mL (≈ 153 µM)	128 µg/mL (≈ 305 µM)	16 µg/mL (≈ 38.1 µM)	16 µg/mL (≈ 38.1 µM)	128 µg/mL (≈ 305 µM)
Nc1ccc(S(=O)(=O)C/C(=N/OCc2ccc(Cl)cc2)c2nccs2)cc1	64 µg/mL (≈ 152 µM)	64 µg/mL (≈ 152 µM)	16 µg/mL (≈ 37.9 µM)	64 µg/mL (≈ 152 µM)	8 µg/mL (≈ 19 µM)	64 µg/mL (≈ 152 µM)	128 µg/mL (≈ 303 µM)	8 µg/mL (≈ 19 µM)	16 µg/mL (≈ 37.9 µM)	8 µg/mL (≈ 19 µM)	64 µg/mL (≈ 152 µM)
COc1ccc(/C=C(/C(=O)c2nccs2)S(=O)(=O)c2ccc(NC(C)=O)cc2)cc1	32 µg/mL (≈ 72.3 µM)	32 µg/mL (≈ 72.3 µM)	32 µg/mL (≈ 72.3 µM)	128 µg/mL (≈ 289 µM)	128 µg/mL (≈ 289 µM)	4 µg/mL (≈ 9.04 µM)	16 µg/mL (≈ 36.2 µM)	64 µg/mL (≈ 145 µM)	32 µg/mL (≈ 72.3 µM)	4 µg/mL (≈ 9.04 µM)	128 µg/mL (≈ 289 µM)
CC(=O)Nc1ccc(S(=O)(=O)/C(=C\c2ccc(Cl)cc2Cl)C(=O)c2nccs2)cc1	128 µg/mL (≈ 266 µM)	64 µg/mL (≈ 133 µM)	256 µg/mL (≈ 532 µM)	128 µg/mL (≈ 266 µM)	128 µg/mL (≈ 266 µM)	128 µg/mL (≈ 266 µM)	256 µg/mL (≈ 532 µM)	256 µg/mL (≈ 532 µM)	128 µg/mL (≈ 266 µM)	128 µg/mL (≈ 266 µM)	256 µg/mL (≈ 532 µM)
